Measurements reported in patent US20190209641A1, “METHODS FOR PREVENTING OR TREATING METABOLIC SYNDROME” (Cornell University, priority 2009, published 2019).
Several values for one entry are separate records, joined by “and”; a condition that tells them apart may be missing. Identical values can stand only once. Non-standard residues stand in square brackets, D forms with d. No end group written: not given here.

Key:
DIO C57BL/6 mice = test: Diet-induced obesity (DIO) in C57BL/6 mice, Example 3; format: in vivo, mouse; details: for Glucose Tolerance (IPGTT), Week 5: DIO vehicle 1719.7 ± 56.8, chow vehicle 1213.6 ± 54.1; for glucose tolerance in the obese mouse model (in words): IPGTT, 1 g/kg D-glucose i.p.; for abdominal fat index / subcutaneous fat index: after 14 weeks of treatment
Experimental: To analyze the pharmacodynamic effects of SS-31 and SS-20 against diet-induced obesity (D10) in C57BL/6 mice, the test subjects were fed either a normal diet or a high-fat diet having the composition shown in Table 9.
After several days of acclimation, animals were weighted and randomly assigned to the following treatment groups.
Starting from the first day of treatment, animals in Groups B to I were switched to HFD. During the entire treatment period, the following activities were performed on specific days.
Dose Preparation & Administration. The treatment was given once a day (5 days a week) with injection site alternated. The concentration of SS-31 and SS-20 dosed at 3 mg/kg was 0.6 mg/ml and that of 10 mg/kg was 2 mg/ml. The treatment volume (0.05 mUl0 g for s.c. and 0.2 ml/10 g for p.o.) for each test animal was adjusted according to its body weight taken on the beginning of each week.
Blood Sample Collection. Blood samples were collected by tail snip according to the Medicilon/MPI Preclinical Research (Shanghai) LLC SOP on Blood Collection Techniques. […] Collected blood samples were set at room temperature for 1 hour to allow clotting before being centrifuged at 2,000×g for 10 min. The supernatant were collected and re-centrifuged at 2,000×g for another 10 min. to generate the serum. Part of the serum samples were used for total cholesterol (TC) analysis immediately. The rest were stored at −20° C. until being used in insulin analysis.
Serum Insulin, Triglyceride (TG) & Total Cholesterol (TC). Serum insulin levels were measured using Rat/Mouse Insulin ELISA Kit from Millipore Corporation (Catalog # EZRMI-13K, St. Charles, Mo., USA). Serum TG levels were measured by automatic biochemical analyzer. FIG. 5A is a chart illustrating the effects of peptide treatment on triglycerides in a murine model of diet-induced obesity after 14 weeks of treatment. FIG. 5B is a chart illustrating the effects of peptide treatment on total cholesterol in a murine model of diet-induced obesity after 14 weeks of treatment. FIG. 5C is a chart illustrating the effects of peptide treatment on HDL cholesterol in a murine model of diet-induced obesity after 14 weeks of treatment.
IPGTT. IPGTT was performed according to the Medicilon-MPI Preclinical Research (Shanghai) LLC SOP on Intraperitoneal (IP) Glucose Tolerance Test with slight modifications. Mice were fast overnight before the baseline glucose levels assessed in the next morning. After that, an IP injection of 1 g/kg D-glucose was given to each animal and the blood glucose levels were then measured on 15, 30, 60 and 120 minutes post the IP injection.

HFD/STZ SD rats = test: Rat model of metabolic syndrome (HFD + low-dose STZ), Example 1; format: in vivo; details: for body weight increase over the 10-week treatment period: 10 mg/kg s.c. q.d. 5 days a week, by the end of 10th week, HFD/STZ control 3.6%, NRC 23.3%; for effect on blood glucose: 10 mg/kg s.c., week 4 post peptide treatment, vs. HFD/STZ vehicle rats
Experimental: The effects of aromatic-cationic peptides in treating a subject suffering from metabolic syndrome were investigated in a Sprague-Dawley rat model over […]. The example describes the results of such experiments.
In vivo models. A rat model of metabolic syndrome was established by combination of 6-week HFD and low-dose STZ (40 mg/kg) injection in SD rats. Rats of the same batch fed with normal chow (NRC) were used as a control.
Study groups. Group A: NRC+PBS s.c. q.d. (Mon-Fri)*, n=5; Group B: HFD +STZ+PBS s.c. q.d. (Mon-Fri), n=8; Group C:HFD+STZ+SS-31 10 mg/kg s.c. q.d. (Mon-Fri), n=8; Group D: HFD+STZ+SS-20 10 mg/kg s.c. q.d. (Mon-Fri), n=8.
Preparation and administration of test compounds. SS-31 or SS-20 was dissolved in 0.01 M PBS (pH 7.0). The 10-week treatment was given once a day (5 days a week) with s.c. injection site alternated. The concentration of SS-31 and SS-20 was 5.0 mg/mL. The injection volume (0.2 mL/100 g) for each test animal was adjusted according to body weight taken on the beginning of each week. STZ was dissolved in 0.1 M citrate buffer (pH 4.5) to concentration of 20 mg/mL. STZ is injected intraperitoneally.
Blood glucose. Blood glucose was tested by ACCU-CHEK® Advantage™ blood glucose meter and test strips from Roche diagnostics GmbH (Mannheim, Germany).
Blood sample handling. Blood samples were collected by tail snip. […] Collected blood samples were set at room temperature for 30 min to allow clotting before being centrifuged at 1,200×g for 10 min. The supernatant were collected and re-centrifuged at 1,200×g for another 5 min to generate the serum. Serum samples were aliquotted and stored at −20° C. until being used in analysis.
Statistics: Statistic analysis oft-test and one-way ANOVA was performed by SPSS (Statistical Package for Social Science) analysis software.

HFD/STZ rats = test: HFD/STZ rat model of metabolic syndrome, 10-week peptide treatment, Example 2; format: in vivo; details: for TG level before peptide treatment: baseline; for change in blood glucose during 10-week peptide treatment / change in body weight during 10-week peptide treatment: SS-31 10, 3, 1 mg/kg or SS-20 10, 3 mg/kg s.c. once daily 5 days a week
Experimental: This study was initiated to investigate the effects of SS-31 and SS-20 in a model of metabolic syndrome over a 10 week period. Rats were fed with a high-fat diet for 6 weeks and then administered a single dose of STZ (30 mg/kg). The rats were maintained on a HFD until 14 weeks after STZ administration. Control rats fed normal rat chow (NRC) for 6 weeks were then administered citrate buffer without STZ. After 5 months, diabetic rats were treated with SS-31 (10 mg/kg, 3 mg/kg, 1 mg/kg s.c. once daily), SS-20 (10 mg/kg, 3 mg/kg s.c. once daily) or vehicle (saline) 5 days a week for 10 weeks. The study groups were as follows:
Group A: HFD/STZ+SS-31 10 mg/kg s.c. q.d. (Mon-Fri.), n=12;
Group B: HFD/STZ+SS-31 3 mg/kg s.c. q.d. (Mon-Fri.), n=12;
Group C: HFD/STZ+SS-31 1 mg/kg s.c. q.d. (Mon-Fri.), n=10;
Group D: HFD/STZ+SS-20 10 mg/kg s.c. q.d. (Mon-Fri.), n=10;
Group E: HFD/STZ+SS-20 3 mg/kg s.c. q.d. (Mon-Fri.), n=10;
Group F: HFD/STZ+vehicle s.c. q.d. (Mon-Fri.), n=10;
Group G: NRC +vehicle s.c. q.d. (Mon-Fri.), n=10.
HFD feeding for 6 weeks produced obvious body weight gain (452.9±3.8g in HFD group vs. 425.5±7.1 g, P<0.01) and STZ administration increased blood glucose (26.5±0.5 mmol/L in HFD/STZ rats vs. 9.8±0.5 mmol/L in NRC rats, P<0.001) and hyperlipidemia (P<0.01), indicating a metabolic syndrome-like disorder in these test subjects.

[1] = system: STZ-induced diabetic Sprague-Dawley rats; test: STZ diabetes model in male Sprague-Dawley rats, Example 4; format: in vivo, rat; details: 10 mg/kg s.c. q.d. 5 days a week, after peptide treatment for 2 weeks or 4 weeks, vs. STZ/Saline group
Experimental: The objective of this study was to explore the protective effect of SS-31 or SS-20 against Streptozotocin (STZ) induced diabetic complications and metabolic syndrome in male Sprague-Dawley rats.
Rat models of type 1 diabetes were established by administration of high-dose STZ (30 mg/kg). Rats of the same batch fed with regular chow are used as normal control. The study groups included: Group A: STZ+SS-31 10 mg/kg s.c. q.d. (M.-F.), n=11; Group B: STZ+SS-20 10 mg/kg s.c. q.d. (M.-F.), n=11; Group C: STZ+vehicle s.c. q.d. (M.-F.), n=10; Group D: NRC +vehicle s.c. q.d. (M.-F.), n=10.
The compounds were dissolved in saline. The treatment was given once a day (5 days a week) with injection site to be alternated. The concentration of SS-31 and SS-20 dosed at 10mg/kg is 5mg/ml. The treatment volume (0.2 ml/100 g for s.c.) for each test animal was adjusted according to its body weight taken on the beginning of each week. STZ was dissolved in 0.1 M citrate buffer (pH4.5) to concentration of 20 mg/mL. STZ was injected intraperitoneally.

[2] = 10 mg/kg s.c. q.d. 5 days a week

Molecule | Glucose Tolerance (IPGTT), Week 5 (DIO C57BL/6 mice; 2 mg/kg p.o.) | body weight increase over the 10-week treatment period (HFD/STZ SD rats) [%] | effect on blood glucose (HFD/STZ SD rats) | TG level before peptide treatment (HFD/STZ rats; 3 mg/kg group) [mM] | TG level after 10 weeks' peptide treatment (HFD/STZ rats; 3 mg/kg s.c. q.d. 5 days a week) [mM] | TG level before peptide treatment (HFD/STZ rats; 10 mg/kg group) [mM] | TG level after 10 weeks' peptide treatment (HFD/STZ rats; [2]) [mM] | change in blood glucose during 10-week peptide treatment (HFD/STZ rats) | change in body weight during 10-week peptide treatment (HFD/STZ rats) | Glucose Tolerance (IPGTT), Week 5 (DIO C57BL/6 mice; 3 mg/kg s.c.) | Glucose Tolerance (IPGTT), Week 5 (DIO C57BL/6 mice; 10 mg/kg s.c.) | glucose tolerance in the obese mouse model (in words) (DIO C57BL/6 mice) | abdominal fat index (DIO C57BL/6 mice) | subcutaneous fat index (DIO C57BL/6 mice) | TG level [1] | TG level before peptide treatment (HFD/STZ rats; 3 mg/kg group, 3 mg/kg) | TG level after 10 weeks' peptide treatment (HFD/STZ rats; 3 mg/kg s.c. q.d. 5 days a week, 3 mg/kg)
CN(CCOc1ccc(CC2SC(=O)NC2=O)cc1)c1ccccn1 (centres unmarked) [Rosi, Rosiglitazone, reference compound] | 1487.5 ± 44.2 | – | – | – | – | – | – | – | – | – | – | – | – | – | – | – | –
D-Arg-2′,6′-Dmt-Lys-Phe-NH2 [SS-31] | – | 16.3 | down-regulation effect on blood glucose | 4.17 ± 0.88 | 2.46 ± 0.52 | 3.77 ± 0.38 | 1.75 ± 0.33 | no obvious changes | no obvious changes | 1460.6 ± 64.1 | 1584.3 ± 78.3 | significantly improve glucose tolerance | capable of reducing | capable of reducing | increased less than STZ/Saline group | – | –
F[dR]FK-NH2 [SS-20] | – | 9.0 | down-regulation effect on blood glucose | – | – | 4.17 ± 1.02 | 1.97 ± 0.46 | no obvious changes | no obvious changes | 1534.1 ± 53.3 | 1494.5 ± 54.4 | significantly improve glucose tolerance | capable of reducing | capable of reducing | increased less than STZ/Saline group | 4.66 ± 1.40 mM and 3.90 ± 0.65 mM | 2.43 ± 0.47 mM and 3.70 ± 1.16 mM
